Key:
P2X7 receptor [1] = target: T1, P2X7 receptor (Mus musculus, UniProt Q9Z1M0); assay: Ca++ mobilization by P2X7 receptor in macrophages; assay type: cell-based; details: BMDM cells, LPS (100 ng/ml)+HY209 (400 ng/ml) 1 hour, ATP (20 μM) or BzATP (40 μM)
T1 construct: endogenous in cells; host or cells: primary BMDM (bone marrow-derived macrophages)
Description: Specifically, BMDMs were obtained from three normal (wild-type, WT), GPCR19 KO or P2X7 KO mice. Then, the obtained BMDMs were treated with 20 μM ATP, attached to a glass coverslip, and then incubated in a physiological external solution consisting of NaCl 138 mM, KCl 5.6 mM, MgCl2 2 mM, HEPES 10 mM and pH 7.4 glucose 10 mM with 2 μM Fluo-4/AM in a 37° C. incubator for 30 minutes to observe intracellular Ca^++ mobilization. After that, the BMDMs were transferred to an open perfusion chamber to remove residual Fluo-4/AM, and the fluorescence level was measured using a fluorescence microscope (Nikon, Tokyo, Japan) under the conditions of excitation 494 nm and emission 506 nm. […]
After the treatment, Ca^++ mobilization measurement was started, and the cells were treated with ATP (20 μM) or BzATP (40 μM) in the presence of 2 mM CaCl2) and 0.5 mM MgCl2 50 seconds after the start of measurement. Intracellular Ca^++ mobilization was measured with […] using a fluorescence microscope in the same manner as in Example <2-1>, and graphed (FIG. 2D, left panels in first and second rows). After three independent experiments, the sum of the measured data was presented (FIG. 2D, right panels in first and second rows).

IL-1β [2] = assay: IL-1β ELISA of HaCaT culture supernatant; assay type: cell-based, human; details: HaCaT cells
Description: Thereafter, the IL-1β concentration was measured according to the manufacturer's procedure using the IL-113 ELISA kit (R&D Systems Minneapolis, MN, USA) (FIG. 3B).

[3] = system: TNF-α, RANTES, MCP-1, IL-1β and IL-8; assay: Cytokine measurement using cytometric bead array (CBA); assay type: cell-based; details: 1 μM; compared with INT777, crisaborole, MCC950, A740003, GW791343, tofacitinib, prednisolone
Description: Specifically, cocktail beads were prepared by mixing fluorescent beads bound with antibodies to five types of inflammatory cytokines, TNF-α, RANTES, MCP-1, IL-1β and IL-8 to be confirmed. Next, 50 μl of the prepared cocktail beads, the prepared sample, and the standard sample were reacted at room temperature for 1 hour in a dark environment. […] As a positive control group, 1 μM of prednisolone, a corticosteroid was used. The reaction mixture was transferred to a new tube by the required amount so that the phycoerythrin (PE) detection reagent was 1 μl/sample, and washed with the washing buffer, the capture bead diluent was added so as to be contained by 50 μl per each sample through the calculation of volume, and the reaction was conducted at room temperature for 15 minutes in a dark environment. Next, 50 μl of the prepared PE detection reagent was added into the tube in which the cocktail beads, the prepared sample, and the standard sample were reacting, mixing was thoroughly performed, and then the reaction was further conducted for 2 hours. After all reactions were completed, 1 ml of washing buffer was added, centrifugation was performed at 200 g for 5 minutes, then the supernatant was removed, 300 μl of washing buffer was added, and then quantitative measurement of the 5 types of inflammatory cytokines was performed using a flow cytometer (CANTO II FACS, BD Biosciences, US).

P2X7 receptor [4] = assay: Ca++ mobilization by P2X7 receptor in keratinocytes; assay type: cell-based, human; details: HaCaT cells, IL-1β (10 ng/ml)+TNF-α (10 ng/ml), HY209 200, 400 and 800 ng/ml, 20 μM BzATP or ATP
P2X7 = P2X7 (Homo sapiens, UniProt Q99572); assay: Potassium ion channel assay in PMA-differentiated U937 cells; details: U937 cells differentiated by PMA (25 nM), BzATP (600 μM), HY209 (1 μM) 1 hour before BzATP
Description: Specifically, U937 cells were used to investigate whether the activity of ion channel was changed by the regulation of GPCR19. U937 cells were differentiated by treatment with PMA (25 nM). After that, a fluorescent probe was added and the reaction was conducted for 1 hour. Thereafter, the cells were treated with BzATP (600 μM), and the cumulative fluorescence value was measured using an ELISA instrument to investigate whether the ion channel was activated.

NLRP3 inflammasome [5] = assay: Inflammasomal components in HaCaT cells (immunostaining); assay type: cell-based, human; details: TNF-α (20 ng/ml)+HY209 (400 ng/ml) 3 hours, then DNCB (5 μg/ml) 24 hours
Description: (§1) After that, in order to stain inflammasomal components, the cells were stained with anti-NLRP3 conjugated antibody (Abeam, Cambridge, UK) and anti-ASC Ab (Clone B-3, Santa Cruz Biotechnology, Inc. Dallas, Texas, USA) at 4° C. overnight, and then with Alexa Fluor 488-labeled or Alexa Fluor 532-labeled secondary conjugated antibody (Invitrogen, Carlsbad, CA, USA).

P2X7 receptor [6] = assay: Ca++ mobilization by P2X7 receptor in microglia; assay type: cell-based, mouse; details: BV2 cells, Aβ (2 μM)+HY209 (400 ng/ml) 1 hour, ATP (20 μM) or BzATP (40 μM)
IL-1β [7] = assay: IL-1β ELISA of BMDM culture supernatant; assay type: cell-based, mouse; details: BMDM cells
Description: The cells were treated with ATP (500 μm) or BzATP (300 μm) for an additional 1 hour before recovery of the culture supernatant of the sample. IL-1β concentration in the culture supernatant recovered was measured according to the manufacturer's procedure using the IL-1β ELISA kit (R & D Systems Minneapolis, MN, USA) (FIG. 4A).
IL-1β concentration in the culture supernatant recovered was measured according to the manufacturer's procedure using the IL-1β ELISA kit (R & D Systems Minneapolis, MN, USA) (FIG. 4B).

NLRP3 inflammasome [8] = assay: Inflammasomal components in BMDM cells (immunostaining); assay type: cell-based, mouse; details: LPS (10 ng/ml)+HY209 (400 ng/ml) 1 hour, BzATP (300 μm) 1 hour
Description: as §1

T1 sequence (Q80SS6 whole entry partner): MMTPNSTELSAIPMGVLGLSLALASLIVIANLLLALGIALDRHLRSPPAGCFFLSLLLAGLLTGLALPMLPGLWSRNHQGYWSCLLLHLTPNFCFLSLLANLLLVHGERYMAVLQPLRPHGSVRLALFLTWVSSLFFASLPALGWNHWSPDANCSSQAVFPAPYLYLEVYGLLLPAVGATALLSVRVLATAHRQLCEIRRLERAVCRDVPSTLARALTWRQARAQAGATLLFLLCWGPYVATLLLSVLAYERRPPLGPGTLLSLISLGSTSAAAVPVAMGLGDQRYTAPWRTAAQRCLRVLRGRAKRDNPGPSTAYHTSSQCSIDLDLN
T1 sequence (Q9Z1M0 whole entry): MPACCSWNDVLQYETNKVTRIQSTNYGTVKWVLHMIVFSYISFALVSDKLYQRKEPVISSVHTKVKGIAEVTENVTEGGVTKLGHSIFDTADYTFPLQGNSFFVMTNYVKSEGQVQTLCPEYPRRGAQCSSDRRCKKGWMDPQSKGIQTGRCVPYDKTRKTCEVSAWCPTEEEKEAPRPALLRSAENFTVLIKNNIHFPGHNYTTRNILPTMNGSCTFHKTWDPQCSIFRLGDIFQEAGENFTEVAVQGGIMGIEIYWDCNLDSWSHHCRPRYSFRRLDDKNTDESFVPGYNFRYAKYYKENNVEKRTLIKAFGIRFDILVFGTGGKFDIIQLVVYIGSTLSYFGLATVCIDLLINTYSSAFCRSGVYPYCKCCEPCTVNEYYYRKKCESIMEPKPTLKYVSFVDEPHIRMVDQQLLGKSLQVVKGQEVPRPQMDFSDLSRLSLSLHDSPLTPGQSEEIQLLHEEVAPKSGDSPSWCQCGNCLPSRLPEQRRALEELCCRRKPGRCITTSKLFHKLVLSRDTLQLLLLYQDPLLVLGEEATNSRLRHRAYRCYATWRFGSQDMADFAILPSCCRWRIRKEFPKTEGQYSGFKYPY
P2X7, sequence (Q8TDU6 whole entry partner): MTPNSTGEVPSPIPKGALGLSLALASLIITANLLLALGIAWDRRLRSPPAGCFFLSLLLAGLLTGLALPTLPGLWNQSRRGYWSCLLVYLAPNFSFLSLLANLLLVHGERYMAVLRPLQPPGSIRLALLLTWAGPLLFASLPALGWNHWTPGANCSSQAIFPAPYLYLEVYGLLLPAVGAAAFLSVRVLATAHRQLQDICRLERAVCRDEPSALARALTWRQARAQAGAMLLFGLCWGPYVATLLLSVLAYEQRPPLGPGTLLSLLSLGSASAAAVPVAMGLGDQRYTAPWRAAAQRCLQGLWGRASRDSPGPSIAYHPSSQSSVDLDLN
P2X7, sequence (Q99572 whole entry): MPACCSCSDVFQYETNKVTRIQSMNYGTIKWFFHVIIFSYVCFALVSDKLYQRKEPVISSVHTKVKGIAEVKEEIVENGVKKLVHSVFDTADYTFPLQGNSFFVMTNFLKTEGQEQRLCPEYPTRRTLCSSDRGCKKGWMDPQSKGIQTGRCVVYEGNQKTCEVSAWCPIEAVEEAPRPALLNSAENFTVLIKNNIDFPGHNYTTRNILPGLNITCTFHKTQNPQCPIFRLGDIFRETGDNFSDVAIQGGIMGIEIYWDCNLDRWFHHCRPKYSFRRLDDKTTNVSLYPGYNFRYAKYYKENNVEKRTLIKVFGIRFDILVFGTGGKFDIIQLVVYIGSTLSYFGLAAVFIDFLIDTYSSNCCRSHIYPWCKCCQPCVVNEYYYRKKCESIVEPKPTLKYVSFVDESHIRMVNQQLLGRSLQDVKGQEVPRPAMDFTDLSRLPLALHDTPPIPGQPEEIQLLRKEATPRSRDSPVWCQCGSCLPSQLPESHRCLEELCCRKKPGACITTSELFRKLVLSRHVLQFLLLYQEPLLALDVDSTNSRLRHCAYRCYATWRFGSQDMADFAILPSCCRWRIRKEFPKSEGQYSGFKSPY

With C[C@H](CCC(=O)NCCS(=O)(=O)O)[C@H]1CC[C@H]2[C@@H]3CC[C@@H]4C[C@H](O)CC[C@]4(C)[C@H]3C[C@H](O)[C@]12C [HY209, sodium taurodeoxycholate] the “Ca++ mobilization increased under the influence of LPS” value (P2X7 receptor [1]) was “significantly decreases”, the “increase in the production of IL-1β” value (IL-1β [2]; TNF-α (20 ng/ml)+DNCB (5 μg/ml)+HY209 (400 ng/ml), 24 hours) was “suppressed” and the “increase in the production of IL-1β” value (IL-1β [2]; TNF-α+DNCB+HY209 (400 ng/ml) 24 hours, then ATP 3 hours) was “suppressed”. The “inhibitory effect on five types of inflammatory cytokines produced by the inflammasome stimulation signal” value [3] was “superior”, the “Ca++ mobilization increased under the influence of IL-1β and TNF-α” value (P2X7 receptor [4]) was “significantly decreases as the concentration of HY209 increases” and the “decrease of cumulative fluorescence value increased by BzATP” value (P2X7) was 100%. For the same compound, the “increase in hASC expression” value (NLRP3 inflammasome [5]) was “suppressed”, the “increase in hNLRP3-ASC oligomerization” value (NLRP3 inflammasome [5]) was “suppressed” and the “increase in hNLRP3 expression” value (NLRP3 inflammasome [5]) was “suppressed”. For the same compound, the “Ca++ mobilization increased under the influence of Aβ” value (P2X7 receptor [6]) was “significantly decreases”, the “increase in the production of IL-1β” value (IL-1β [7]; HY209 (400 ng/ml) after treatment with LPS+BzATP (posttreatment, 3 hours after LPS)) was “suppressed” and the “increase in the production of IL-1β” value (IL-1β [7]; HY209 (400 ng/ml) before treatment with LPS+ATP (pretreatment, 1 hour before LPS)) was “suppressed”. For the same compound, the “increase in the production of IL-1β” value (IL-1β [7]; LPS (10 ng/ml)+ATP (500 μm), HY209 0, 25, 100, 400 ng/ml) was “suppressed in a HY209 concentration-dependent manner”, the “increase in the production of IL-1β” value (IL-1β [7]; LPS (10 ng/ml)+BzATP (300 μm), HY209 0, 25, 100, 400 ng/ml) was “suppressed in a HY209 concentration-dependent manner” and the “increase in hASC expression” value (NLRP3 inflammasome [8]) was “suppressed”. For the same compound, the “increase in hNLRP3-ASC oligomerization” value (NLRP3 inflammasome [8]) was “suppressed” and the “increase in hNLRP3 expression” value (NLRP3 inflammasome [8]) was “suppressed”.
